{"source": "patent US20040048837A1", "about": "“Method for treatment of renal disease” (priority 2002, published 2004)", "key": {"cells": {"tested_on": "cells", "conditions": "in vitro; compared with paricalcitol; independent of serum calcium, phosphate, PTH; cited from earlier work"}, "[1]": {"tested_on": "patients undergoing chronic hemodialysis", "experiment": "Historical cohort study of mortality and survival in chronic hemodialysis patients on intravenous paricalcitol or calcitriol", "assay_type": "in vivo, human", "conditions": "for Mortality rate (deaths/person-years): 36-month follow-up after initiation of injectable vitamin D; for Number of deaths: 36-month follow-up, paricalcitol 18,430 person-years, calcitriol 22,057 person-years; for Crude survival at one year / Crude survival at three years / Crude survival at two years: Kaplan-Meier; for Mortality risk according to quintiles of base line PTH / Mortality risk according to quintiles of base line serum calcium: model adjusted for all covariates; for HR (mortality): reference calcitriol", "description": "An historical cohort study was conducted of patients undergoing chronic hemodialysis in Fresenius Medical Care (FMC) dialysis facilities in the United States. Patients who initiated treatment with either paricalcitol or calcitriol beginning Jan. 1, 1999 or after, and who remained exclusively on that intravenous vitamin D formulation until the conclusion of the follow-up period on Dec. 31, 2001, were included in this study. Patients were excluded if they received any form of intravenous vitamin D prior to Jan. 1, 1999 or if they switched from one injectable vitamin D formulation to another during the study period. Patients treated exclusively with other intravenous vitamin D formulations were not studied because of small sample sizes in those groups.\nThe FMC data system is an Oracle database populated by the individual clinical data systems employed in each individual FMC dialysis facility. The database contains demographic, laboratory, hospitalization, and mortality information as well as detailed records of the treatments administered during each hemodialysis run since January 1995. All data were collected prospectively as part of routine patient care in over 1000 dialysis facilities throughout the United States. For this study, no additional data were retrospectively abstracted from medical records.\nUpon a patient's admission to an FMC facility, demographic information including age, gender, race, date of first dialysis, cause of end stage renal disease, and diabetes status were entered into the system. Subsequently, hemodialysis prescription, laboratory tests, and injectable medications were recorded daily. Centralized labs utilized by all FMC facilities performed laboratory tests using standardized assays. Laboratory test results were automatically downloaded from the centralized laboratory to the FMC data system, minimizing the possibility of data entry errors.\nRecords of all medicines administered during hemodialysis included date of administration, medication name, dose, and route of administration. This information was collected and uploaded into a central database on a daily basis, and underwent routine quality assessment and control measures because of their link with billing systems. This permitted restriction of the analysis to those who initiated and remained on a single vitamin D formulation during the study period. Whenever a patient missed a hemodialysis treatment, a temporary absence or permanent discharge must be recorded in the system by the facility staff in order to complete the daily reconciliation of prescribed verses administered treatments. Therefore, all patient deaths, including date and cause of death (ICD-9 coded), were recorded in the database by the individual facilities as one type of permanent discharge. In addition, all hospitalizations are recorded as temporary absences, even if no dialysis treatment was missed. Data entered by the individual facilities underwent continuous quality improvement assessment to ensure their accuracy and completeness.\nThe base line for each individual patient was defined as within a three-month period before starting on paricalcitol or calcitriol. Base line laboratory values were obtained by averaging all values in the three months prior to initiating vitamin D therapy. Quintiles of base line serum calcium and phosphate levels were determined by aggregating values of all patients in the three year time period. Because of known lot-to-lot drifts in parathyroid hormone (PTH) assays, serum levels of PTH were categorized by yearly quintiles, and comparative quintiles across years were combined for the analysis.\nPatient “vintage” was determined as the number of days from the initiation of chronic hemodialysis to the first day paricalcitol or calcitriol was administered. This covariate was examined both as a continuous and a categorical variable. […]"}, "[2]": {"tested_on": "patients undergoing chronic renal dialysis", "conditions": "use of paricalcitol; cited from earlier work"}, "uremic rats": {"tested_on": "uremic rats", "conditions": "cited from earlier work"}, "patients": {"tested_on": "patients", "conditions": "compared with injectable calcitriol (Calcijex); cited from earlier work"}}, "data": [{"smiles": "C=C1/C(=C\\C=C2/CCC[C@]3(C)[C@@H]([C@H](C)CCCC(C)(C)O)CC[C@@H]23)C[C@@H](O)C[C@@H]1O", "note": "[calcitriol, 1,25 dihydroxycholecalciferol]", "values": [{"measurement": "Cell sensitization to injury", "setting": "cells", "value": "sensitizes cells to ATP-depletion and iron-mediated injury"}, {"measurement": "Mortality rate (deaths/person-years)", "setting": "[1]", "value": 30.85, "unit": "%"}, {"measurement": "Number of deaths", "setting": "[1]", "value": 6805, "unit": "deaths"}, {"measurement": "Crude survival at one year", "setting": "[1]", "value": 73.7, "unit": "%"}, {"measurement": "Crude survival at three years", "setting": "[1]", "value": 44.1, "unit": "%"}, {"measurement": "Crude survival at two years", "setting": "[1]", "value": 56.0, "unit": "%"}, {"measurement": "Mortality risk according to quintiles of base line PTH", "setting": "[1]", "value": "increased with each successive quintile"}, {"measurement": "Mortality risk according to quintiles of base line serum calcium", "setting": "[1]", "value": "increased with each successive quintile"}]}, {"smiles": "C[C@H](/C=C/[C@H](C)C(C)(C)O)[C@H]1CC[C@H]2/C(=C/C=C3C[C@@H](O)C[C@H](O)C3)CCC[C@]12C", "note": "[paricalcitol, 19-Nor=−1, 25-(OH)2D2]", "values": [{"measurement": "Adverse effects reported", "setting": "[2]", "value": "nausea, vomiting, metallic tastes, chills, fever, sepsis, palpitations, dry mouth, gastrointestinal bleeding, edema, light-headedness and pneumonia"}, {"measurement": "Hypercalcemia or hyperphosphatemia", "setting": "uremic rats", "value": "without producing significant hypercalcemia or hyperphosphatemia"}, {"measurement": "PTH secretion", "setting": "uremic rats", "value": "suppressed PTH secretion"}, {"measurement": "Mortality rate (deaths/person-years)", "setting": "[1]", "value": 18.54, "unit": "%"}, {"measurement": "Number of deaths", "setting": "[1]", "value": 3417, "unit": "deaths"}, {"measurement": "HR (mortality), restricted population, adjusted", "setting": "[1]; Caucasian diabetic patients, ages 60-70 years, vintage <100 days, arteriovenous prosthetic graft, 95% CI 0.21-0.82", "value": 0.42}, {"measurement": "HR (mortality), restricted population, unadjusted", "setting": "[1]; Caucasian diabetic patients, ages 60-70 years, vintage <100 days, arteriovenous prosthetic graft, 95% CI 0.33-0.85", "value": 0.53}, {"measurement": "HR (mortality)", "setting": "[1]; Cox model Case Mix, Study Entry Period, SMR, Dialysis Access, Base-Line Laboratory Values, N 25,471", "value": 0.73}, {"measurement": "HR (mortality)", "setting": "[1]; Cox model Case Mix, Study Entry Period, SMR, Dialysis Access, N 50,572", "value": 0.70}, {"measurement": "HR (mortality)", "setting": "[1]; Cox model Case Mix, Study Entry Period, SMR, N 50,572", "value": 0.69}, {"measurement": "HR (mortality)", "setting": "[1]; Cox model Case-Mix and Study Entry Period, N 50,572", "value": 0.70}, {"measurement": "HR (mortality)", "setting": "[1]; Cox model Case-Mix, N 50,572", "value": 0.61}, {"measurement": "HR (mortality)", "setting": "[1]; Cox model Unadjusted, N 50,916", "value": 0.58}, {"measurement": "Crude survival at one year", "setting": "[1]", "value": 82.6, "unit": "%"}, {"measurement": "Crude survival at three years", "setting": "[1]", "value": 59.3, "unit": "%"}, {"measurement": "Crude survival at two years", "setting": "[1]", "value": 68.6, "unit": "%"}, {"measurement": "Apparent risk (survival) benefit associated with paricalcitol treatment", "setting": "[1]; after progressive adjustments, vs calcitriol", "value": "~27", "unit": "%"}, {"measurement": "Mortality risk within each quintile of serum phosphorus", "setting": "[1]; compared with the calcitriol group, adjusted model", "value": "comparatively lower"}, {"measurement": "Hazard ratio in the final model (Table 3)", "setting": "[1]; final model n=25,471, Ref = calcitriol", "value": 0.733}, {"measurement": "Risk reduction for each cause of mortality by ICD-9 codes", "setting": "[1]; infection, neoplasm, cardiovascular, cerebrovascular, other, vs calcitriol, p<0.01", "value": "greater than 50%"}, {"measurement": "Mortality risk according to quintiles of base line PTH", "setting": "[1]", "value": "significantly lower risk of mortality at all levels of PTH"}, {"measurement": "Mortality risk according to quintiles of base line serum calcium", "setting": "[1]", "value": "did not appear to have an increased risk of mortality"}, {"measurement": "Mortality Rate Ratio", "setting": "[1]; paricalcitol vs calcitriol, 95% CI 0.58-0.63, p<0.01", "value": 0.60}, {"measurement": "Survival advantage over calcitriol in stratum", "setting": "[1]; patients less than 40 years of age at start, event rate 9%", "value": "did not demonstrate a significant survival advantage"}, {"measurement": "Incidence of elevated Ca and/or Ca X P levels", "setting": "patients", "value": "statistically significantly greater"}]}]}
